Assays:
[1] = Particle size distribution test, laser particle size analyzer, dry dispersion; type: physicochemical
Protocol: The particle size distribution of DPI dry powder was measured by dry dispersion method using laser particle size analyzer, and Dv10, Dv50, Dv90, VMD (Volume median diameter) and SMD (Sauter mean diameter) were determined, respectively.

[2] = system: rats having Bleo-induced pulmonary fibrosis; test: HE staining of rat lung tissue; type: in vivo; details: Bleo rats after 28 days, compared with Bleo model group
Protocol: (§1) 48 SPF healthy SD male rats (weight of 180-220 g) were randomly divided into 8 groups, 6 rats for each group: (1) normal group (control group): normal rearing in the animal center; (2) sham group: this group was given the same dose of air by pulmonary administration; (3) Bleo model group: 100 μL of Bleo solution with a concentration of 12.5 mg/mL was administered through the tracheal intubation, and the rats were rotated for 5 min after drug administration for use, referred to as the Bleo group or the model group in the present application; (4) Bleo+BA-DPI group: the same modeling method as the Bleo model group was used, and BA-DPI was administered through the tracheal intubation via DP-4 rat dry powder lung drug delivery device (manufacturer: Beijing YSKD Biotechnology Co.) at a dose of 9 mg/kg, 3 mg per day for 28 days; (5) Bleo+AH-DPI group (same method as 4); (6) Bleo+BA/AH-DPI group (same method as 4); (7) Bleo+tail intravenous injection group: the formulation solution was administered by tail intravenous injection at a concentration of 3 mg/ml, 9 mg/kg, for a total of 28 days, starting from the second day after the modeling; (8) Bleo+pirfenidone group: 2 ml per day at a concentration of 11.6 mg/ml was administered by gavage starting from the second day after successful modeling for 28 days. […]

[3] = system: rats having Bleo-induced pulmonary fibrosis; test: Total protein in bronchoalveolar lavage fluid (BALF), colorimetric; type: in vivo, rat; details: Bleo rats after 28 days of treatment, n = 6; Bleo group 17.04, normal 7.86
Protocol: as §1

[4] = system: rats having Bleo-induced pulmonary fibrosis; test: Body weight changes in rats; type: in vivo, rat; details: days 1-28, compared with Bleo group
Protocol: as §1

[5] = system: rats having Bleo-induced pulmonary fibrosis; test: Pulmonary function index assay (EMKA pulmonary function detector); type: in vivo, rat; details: day 28, DPI intratracheal or tail i.v. 9 mg/kg, pirfenidone gavage, daily 28 days
Protocol: 48 SPF healthy SD male rats (weight of 180-220 g) were randomly divided into 8 groups, 6 rats for each group: (1) normal group (control group): normal rearing in the animal center; (2) sham group: this group was given the same dose of air by pulmonary administration; (3) Bleo model group: 100 μL of Bleo solution with a concentration of 12.5 mg/mL was administered through the tracheal intubation, and the rats were rotated for 5 min after drug administration for use, referred to as the Bleo group or the model group in the present application; (4) Bleo+BA-DPI group: the same modeling method as the Bleo model group was used, and BA-DPI was administered through the tracheal intubation via DP-4 rat dry powder lung drug delivery device (manufacturer: Beijing YSKD Biotechnology Co.) at a dose of 9 mg/kg, 3 mg per day for 28 days; (5) Bleo+AH-DPI group (same method as 4); (6) Bleo+BA/AH-DPI group (same method as 4); (7) Bleo+tail intravenous injection group: the formulation solution was administered by tail intravenous injection at a concentration of 3 mg/ml, 9 mg/kg, for a total of 28 days, starting from the second day after the modeling; (8) Bleo+pirfenidone group: 2 ml per day at a concentration of 11.6 mg/ml was administered by gavage starting from the second day after successful modeling for 28 days.
Lung DPI dry powder administration operation: DPI powder was weighed precisely and placed in the storage room of the drug delivery device, the DP4 dry powder delivery device was installed, connected to the syringe with 1.5-2 ml of air, the rat was laid on the tracheal intubation platform after anesthesia, the rat laryngoscope was used to expose the tracheal opening, when the tracheal opening was open, the nozzle of the drug delivery device was immediately inserted through the tracheal opening to the bronchial fork, and the air was immediately pushed into the drug delivery device to push DPI fine powder into the rat's lung. The rat in sham group was pushed with 1.5-2 ml of air (not including the drug) as described above.
Various respiratory indices, including inspiratory duration (Ti), expiratory duration (Te), maximal inspiratory flow (PIF), maximal expiratory flow (PEF), tidal volume (TV), relaxation time (RT), and expiratory volume (EV), in freely moving rats were measured by EMKA pulmonary function detector at the completion of modeling on day 28.

[6] = system: rats having Bleo-induced pulmonary fibrosis; test: Determination of lung factor in rats; type: in vivo, rat; details: Bleo rats after 28 days of treatment, n = 6; Bleo group 9.45, normal 4.09
Protocol: as §1

[7] = system: rats having Bleo-induced pulmonary fibrosis; test: Hydroxyproline (Hyp) in lung tissue homogenates by ELISA; type: in vivo, rat; details: Bleo rats after 28 days of treatment; Bleo group 118.33, normal 76.43
Protocol: as §1

[8] = system: inflammatory factors IL-4, IL-6, IL-8, and IL-1β in BALF; test: Inflammatory factors in BALF by ELISA; type: in vivo, rat; details: Bleo rats after 28 days, compared with Bleo group
Protocol: as §1
In order to verity whether BA/AH-DPI can regulate the inflammatory process by modulating the secretion of cytokines, the application also measured the concentrations of inflammatory factors IL-4, IL-6, IL-8, and IL-1β in BALF to determine the protective and therapeutic effects of BA/AH-DPI in the pathogenesis of Bleo-induced idiopathic pulmonary fibrosis.
The above BALF supernatant was measured by enzyme-linked immunosorbent assay (ELISA) to detect the concentration levels of inflammatory factors IL-4, IL-6, IL-8, IL-1β, as well as IFN-γ and TGF-β1. […]

[9] = system: SOD, MDA, LDH in rat lung tissue; test: Oxidative stress indicators (SOD, MDA, LDH) in lung tissue homogenates; type: in vivo; details: Bleo rats after 28 days, compared with Bleo group
Protocol: as §1
Oxidative stress played an important role in the process of Bleo-induced pulmonary fibrosis. […] Therefore, in the application, SOD was measured in conjunction with MDA in order to observe the role in pulmonary fibrosis. […]

MPO = test: Myeloperoxidase (MPO) level in serum; type: in vivo, rat; details: Bleo rats after 28 days, compared with Bleo group
Protocol: as §1

`CC(C)C[C@H](N)C(=O)O` [L-leu, L-leucine] gave a D10 [1] of 9.39 μm, a D50 [1] of 50.97 μm and a D90 [1] of 84.70 μm. The “SMD (Sauter mean diameter)” value [1] was 16.64 μm, the “VMD (Volume median diameter)” value [1] was 49.54 μm and the “<3 μm” value ([1]; fraction of particles) was 3.80%. For the same compound, the “<5 μm” value ([1]; fraction of particles) was 6.08%.

For `Cc1ccc(=O)n(-c2ccccc2)c1` [pirfenidone, Pirfenidone], the “Histopathology of lung tissue (HE staining)” value [2] was “less fibrotic features and inflammatory infiltration”, the “Total protein concentration in BALF” value [3] was 10.59 ± 1.47 mg/mL and the “Body weight of rats” value [4] was “significantly different from that in the Bleo group from day 14”. The “EV (expiratory volume)” value [5] was 1.23 ± 0.30 mL, the “PEF (maximal expiratory flow)” value [5] was 10.76 ± 5.93 mL/s and the “PIF (maximal inspiratory flow)” value [5] was 12.52 ± 4.68 mL/s. For the same compound, the “RT (relaxation time)” value [5] was 158.82 ± 63.19 ms, the “TV (tidal volume)” value [5] was 1.22 ± 0.30 mL and the “Te (expiratory duration)” value [5] was 265.48 ± 99.45 ms. The “Ti (inspiratory duration)” value [5] was 180.56 ± 49.34 ms, the Lung factor [6] was 6.15 ± 0.84 and the “Hyp content in lung tissue” value [7] was 83.40 pg/mL. The “IL-1β level in BALF” value [8] was “significantly lower”, the “IL-4 level in BALF” value [8] was “significantly lower” and the “IL-8 level in BALF” value [8] was “significantly lower”. The “LDH content in lung tissue” value [9] was “significantly decreased”, the “MDA level in lung tissue” value [9] was “significantly decreased” and the “SOD antioxidant index in lung tissue” value [9] was “significantly increased”. The “MPO activity in serum” value (MPO) was “significantly inhibited MPO activity”.
